The source of these data is PubChem BioAssay AID1996.

Converted amounts (≈) assume the structure as drawn.

The conditions of this series: buffer; pH 7.4; 200.0 µM.
Take `Cc1ccc(-c2nc3ccc(Cl)cc3c(=O)n2O)cc1`: the kinetic solubility amounted to 0.0422 mg/mL (≈ 147 µM).
The value for `O=S(=O)(c1ccccc1)c1nc(NC2CC2)sc1Cl` was 0.0428 mg/mL (≈ 136 µM); that for `COc1ccc(N2C(=O)CSC2c2ccccc2)cc1` (configuration not stated) was 0.0423 mg/mL (≈ 148 µM); that for `O=C(NCCN1CCOCC1)c1cc([N+](=O)[O-])ccc1Cl` was over 0.0471 mg/mL.
On to `O=C(c1c(F)cccc1F)N(Cc1ccccc1)Cc1ccccc1`, for which the kinetic solubility is 0.0084 mg/mL (≈ 24.9 µM).
With `CCN(C(=O)C1CCCO1)c1ccccc1` (configuration not stated), the solubility (kinetic) came to 0.0252 mg/mL (≈ 115 µM).
As for `CCCCN(CC(=O)NCc1ccc(F)cc1)C(=O)c1ccco1`, the solubility (kinetic) stood at 0.0485 mg/mL (≈ 146 µM).
As for `O=C1CCCN1C(=O)CSc1ncnc2sccc12`, the figure is over 0.044 mg/mL; as for `c1ccc2c(c1)cnc1ccccc12`, 0.0077 mg/mL (≈ 43 µM).
The value for `O=C(Nc1ccc(Cl)c(NC(=O)c2cccs2)c1)c1ccco1` was 0.0374 mg/mL (≈ 108 µM).
The compound `[Cl-].c1ccc(CNc2cccc[nH+]2)cc1` yielded a solubility (kinetic) of over 0.0331 mg/mL.
As for `O=C(Nc1ccc(Cl)cc1Cl)N1CCN(c2ncccn2)CC1`, the figure is over 0.0528 mg/mL; as for `CC(C)Cn1c(=O)[nH]c(=O)c2c(C(F)(F)F)cc(-c3ccccc3)nc21`, under 0.0003 mg/mL; as for `COc1ccc(N2C(=O)[C@@H]3C(c4cccnc4)=NO[C@@H]3C2=O)cc1`, 0.045 mg/mL (≈ 139 µM).
The value for `CC(C(N)=O)N1C(=O)NC2(CCCc3ccccc32)C1=O` (configuration not stated) was over 0.0431 mg/mL; that for `COc1ccc(CNc2nc3ccccc3n2C(C)C)cc1` was 0.0057 mg/mL (≈ 19.3 µM); that for `N#Cc1cc(Nc2c(N)nc[nH]c2=O)c([N+](=O)[O-])cc1C#N` was over 0.0446 mg/mL.
As for `Cc1ccccc1N1CCN(Cc2cc3c(cc2[N+](=O)[O-])OCO3)CC1`, the figure is 0.0035 mg/mL (≈ 9.85 µM); as for `CCCCCCCCCCCC(=O)N1CC(=O)NC(=O)C1`, 0.0025 mg/mL (≈ 8.43 µM).
Take `Fc1cccc(Cl)c1CNc1ccc(N2CCCC2)cc1`: the solubility (kinetic) was determined as 0.0007 mg/mL (≈ 2.3 µM).
As for `CCn1c(C)c(CS(=O)(=O)c2ccccc2)[nH]c1=O`, the solubility (kinetic) was determined as 0.0098 mg/mL (≈ 35 µM).
As for `O=C(CNC(=O)C1CCCCC1)OCC(=O)c1ccc(F)cc1`, the figure is over 0.0482 mg/mL; as for `S=C(NCc1ccccc1)Nc1cccc2ccccc12`, 0.0038 mg/mL (≈ 13 µM); as for `O=c1[nH]c(O)c(C=Nc2ccccc2Oc2ccccc2)c(=O)[nH]1`, 0.0008 mg/mL (≈ 2.47 µM).
As for `CSCC[C@H](NC(=O)c1cccc(S(=O)(=O)N2CCCCC2)c1)c1nc2ccccc2[nH]1`, the figure is 0.0016 mg/mL (≈ 3.39 µM).
With `COCCNc1nc(N)c([N+](=O)[O-])c(N2CCCCCC2)n1`, the kinetic solubility was 0.0063 mg/mL (≈ 20.3 µM).
As for `CCc1cccc(CC)c1N(COC)C(=O)Cn1cnc2ccccc21`, the figure is over 0.0527 mg/mL; as for `COc1ccc(CC(=O)NCCN2CCOCC2)cc1`, over 0.0418 mg/mL; as for `CC1CCCC(NC(=O)COC(=O)c2cc(=O)[nH]c3ccccc23)C1C` (configuration not stated), 0.0046 mg/mL (≈ 12.9 µM).
Turning to `CCN1CCN(S(=O)(=O)c2ccc(OC)cc2)CC1`, the kinetic solubility came out at 0.0368 mg/mL (≈ 129 µM).
As for `O=C(O)Cn1nc(-c2ccccc2)cc1-c1ccccc1`, the figure is over 0.0417 mg/mL; as for `O=C(COC(=O)COc1ccccc1F)Nc1ccc(Cl)cn1`, 0.0076 mg/mL (≈ 22.4 µM).
As for `O=C(NC(=S)Nc1ccc(F)cc1)C1CCCCC1`, the figure is 0.0013 mg/mL (≈ 4.64 µM); as for `Cc1ccc(O)c(NC(=O)c2cc(-c3ccccc3)on2)c1`, under 0.0003 mg/mL.
`Cc1ccc(NC(=O)CN(C)C(=O)CSc2nccn2C)cc1` came in with a kinetic solubility of over 0.0499 mg/mL.
The value for `CCOC(=O)C1=C(C)N(C)C(=O)NC1c1c(O)ccc2ccccc12` (configuration not stated) was over 0.0511 mg/mL; that for `CCCc1nc2oc3ccccc3c(=O)c2c(=O)n1CCCOC` was over 0.0493 mg/mL; that for `CCOCCOc1cccc(C(=O)NC(C)c2ccc3ccccc3c2)c1` (configuration not stated) was 0.0016 mg/mL (≈ 4.4 µM).
The compound `COCCCNc1nc(N)c([N+](=O)[O-])c(NCc2ccccc2)n1` registered a solubility (kinetic) of 0.0074 mg/mL (≈ 22.3 µM).
As for `CN(C(=O)C(Cl)Cl)C1CC2C=CC1C2` (configuration not stated), the figure is 0.0307 mg/mL (≈ 131 µM); as for `O=C(O)CSc1ncnc2sc3c(c12)CCCC3`, over 0.0421 mg/mL.
The value for `O=C(Nc1ccc(F)cc1)c1ccc(CSc2ccc(Cl)cc2)o1` was 0.0043 mg/mL (≈ 11.9 µM); that for `O=C(c1cccc(S(=O)(=O)N2CCN(c3ccc(F)cc3)CC2)c1)N1CCCC1` was 0.0619 mg/mL (≈ 148 µM); that for `CCCc1cnc(N2CCN(C(=S)NC)CC2)nc1` was 0.0387 mg/mL (≈ 139 µM).
`COc1ccc(C(C)(C)C)cc1NC(=O)CCNC(=O)c1ccco1` yielded a solubility (kinetic) of over 0.0517 mg/mL.
Take `O=C1ON=C(c2ccccc2)/C1=C/c1ccccc1`: the solubility (kinetic) worked out at 0.0347 mg/mL (≈ 139 µM).
For `O=C1CCCN1CCCNc1ncnc2sccc12`, the solubility (kinetic) was over 0.0415 mg/mL.
As for `Cc1ccc(S(=O)(=O)NCCOc2cc(C)ccc2C)cc1`, the figure is 0.0144 mg/mL (≈ 45.1 µM).
`COc1cccc(S(=O)(=O)N2CCN(C(=O)c3ccco3)CC2)c1` returned a solubility (kinetic) of 0.0513 mg/mL (≈ 146 µM).
As for `CCOc1ccc(NC(=S)Nc2cccnc2)cc1`, the figure is 0.0333 mg/mL (≈ 122 µM); as for `CCN(C(=O)COC(=O)c1ccc2c(c1)OCO2)c1ccc(F)cc1`, 0.0104 mg/mL (≈ 30.1 µM).
The value for `Nc1nc(COC(=O)c2ccc3c(c2)OCCO3)nc(Nc2ccccc2)n1` was 0.0039 mg/mL (≈ 10.3 µM); that for `COc1ccccc1CNc1cncnc1` was 0.0282 mg/mL (≈ 131 µM); that for `O=C(Cc1ccc(F)cc1)N1CCN(c2ccc(F)cc2)CC1` was over 0.0475 mg/mL.
The value for `CC(C)n1c(CN(C)c2ccccc2)nc2ccccc21.Cl` was 0.0424 mg/mL; that for `CN(C(=O)c1ccc(Oc2ccc([N+](=O)[O-])cc2)cc1)C1CCCCC1` was 0.001 mg/mL (≈ 2.82 µM); that for `O=C(c1cc(-c2ccc3c(c2)OCO3)on1)N1CCCCC1` was 0.0057 mg/mL (≈ 19 µM).
`COc1cccc2[nH]c3c(N4CCC5(CC4)OCCO5)ncnc3c12` came in with a solubility (kinetic) of over 0.0511 mg/mL.
Take `Cn1c(=O)n(C)c2cc(NC(=O)COc3ccc(F)cc3)ccc21`: the solubility (kinetic) was 0.0407 mg/mL (≈ 124 µM).
As for `COc1ccc(CNC(=S)Nc2cccc(OC)c2)cc1`, the figure is 0.0411 mg/mL (≈ 136 µM); as for `Cc1ccc(C(=O)NCCN2CCN(C(=O)c3ccc(C)c(C)c3)CC2)cc1C`, 0.0531 mg/mL (≈ 135 µM).
As for `Cl.O=C(CSC1=NCCN1)Nc1cccc([N+](=O)[O-])c1`, the figure is over 0.0475 mg/mL; as for `NC(=O)C1CCN(Cc2nc(-c3cccs3)no2)CC1`, over 0.0439 mg/mL.
The compound `Cc1noc(C(=O)Nc2cccc(Cl)c2)c1Cl` showed a kinetic solubility of 0.002 mg/mL (≈ 7.38 µM).
As for `CCOC(=O)Cc1c(C)nc(N)[nH]c1=O`, the figure is 0.0311 mg/mL (≈ 147 µM).
The value for `CC(=O)Nc1cccc(-c2cc(-c3c(Cl)cccc3Cl)no2)c1` was 0.0037 mg/mL (≈ 10.7 µM).
The value for `COC(=O)c1scc(C)c1S(=O)(=O)Nc1ccc(C)cc1` was 0.0065 mg/mL (≈ 20 µM); that for `c1ccc2[nH]c(CCCCc3nc4ccccc4[nH]3)nc2c1` was 0.0434 mg/mL (≈ 149 µM).
Regarding `Cc1cc(NC(=O)c2cc([N+](=O)[O-])cc([N+](=O)[O-])c2C)no1`, the solubility (kinetic) turned out to be 0.0389 mg/mL (≈ 127 µM).
The value for `Cc1cccc(C)c1OCCN1C(=O)NC(C)(c2ccccc2)C1=O` (configuration not stated) was 0.005 mg/mL (≈ 14.8 µM); that for `O=C(NC1CC1)c1ccc(-n2cccc2)cc1` was 0.0174 mg/mL (≈ 76.9 µM); that for `CCOc1ccc(NC(=S)N2CCC(NC(=O)c3ccccc3)CC2)cc1` was 0.0042 mg/mL (≈ 11 µM).
The value for `CC(C)Cn1c(N)c(C=O)c(=O)[nH]c1=O` was over 0.0317 mg/mL.
In the case of `CCOC(=O)CN1C(=O)SC(Nc2ccc(C)cc2)C1=O` (configuration not stated), the solubility (kinetic) is over 0.0463 mg/mL.
As for `COC(=O)CC1C(=O)NCCN1C(=O)c1cc([N+](=O)[O-])ccc1Cl` (configuration not stated), the figure is 0.0529 mg/mL (≈ 149 µM).
As for `c1ccc(N2CCN(Cc3cnc(N4CCOCC4)s3)CC2)cc1`, the figure is over 0.0517 mg/mL.
In turn, `COc1ccc(OCC(=O)Nc2ccc(S(=O)(=O)N(C)c3ccccc3)cc2)cc1` returned a solubility (kinetic) of 0.0018 mg/mL (≈ 4.22 µM).
`Cc1ccsc1/C=C(\CC(=O)O)c1nc2ccccc2o1` gave a solubility (kinetic) of over 0.0449 mg/mL.
The value for `Cc1ccc(S(=O)(=O)N2CCC[C@H]2C(=O)OCC(=O)Nc2ccc3c(c2)OCO3)cc1` was 0.0343 mg/mL (≈ 76.8 µM); that for `O=C(Nc1cccc(S(=O)(=O)N2CCOCC2)c1)c1ccc(Cl)nc1` was over 0.0573 mg/mL.
The value for `Cc1cc(C(c2cc(C)c(N)c(C)c2)c2ccco2)cc(C)c1N` was 0.0239 mg/mL (≈ 74.6 µM); that for `O=C(Nc1nccs1)c1ccc(-c2ccccc2[N+](=O)[O-])o1` was 0.0056 mg/mL (≈ 17.8 µM).
For the compound `COc1nc(-c2ccc(Cl)cc2Cl)nc2ccccc12`, the kinetic solubility is under 0.0003 mg/mL.
The value for `CC(=O)NC(CC(=O)N(C)Cc1cccc(Cl)c1Cl)c1ccccc1` (configuration not stated) was over 0.0569 mg/mL.
`O=C(COc1cccnc1[N+](=O)[O-])NCc1cccs1` returned a solubility (kinetic) of over 0.044 mg/mL.
On to `CCN(c1ccccc1)c1nc(=O)c2cccnc2s1`, for which the kinetic solubility is over 0.0425 mg/mL.
The value for `O=C(O)CC1(CC(=O)Nc2ccc3c(c2)C(=O)OC3)CCCCC1` was over 0.0497 mg/mL; that for `CC(NC(=O)CN(C)CC(=O)Nc1cccc(F)c1)c1ccccc1` (configuration not stated) was over 0.0515 mg/mL; that for `CCCc1c(C)nc(N2CCN(c3cccc(OC)c3)CC2)[nH]c1=O` was 0.004 mg/mL (≈ 11.7 µM).
As for `CC(Cc1ccccc1)NC=O` (configuration not stated), the figure is 0.0244 mg/mL (≈ 149 µM); as for `Cc1c[n+](CC(=O)c2ccccc2)cs1.[Br-]`, 0.0443 mg/mL; as for `Cc1cccc(N2CCN(C(=O)c3ccc(NC(=O)CC4SC(N5CCCC5)=NC4=O)cc3)CC2)c1C` (configuration not stated), 0.0303 mg/mL (≈ 58.3 µM).
The value for `Cc1ccc(C(=O)Nc2ccccc2N2CCCC2)cc1` was 0.0314 mg/mL (≈ 112 µM); that for `CC(NC(=O)CSc1ccccc1C(=O)O)C1CC2CCC1C2` (configuration not stated) was over 0.05 mg/mL; that for `Cc1cccc(C)c1NC(=O)CNC(=O)CNC(=O)c1ccc2c(c1)OCO2` was over 0.0575 mg/mL.
`CCCCCCN=C1CC(C)(C)CC(=O)/C1=C(/O)CCC` yielded a kinetic solubility of 0.0195 mg/mL (≈ 66.5 µM).
As for `O=c1[nH]cccc1-c1nc2ccccc2n1Cc1ccc(Cl)cc1`, the kinetic solubility is over 0.0504 mg/mL.
The value for `O=C(NCCN1CCN(c2ccccc2)CC1)Nc1ccc(Cl)cc1` was 0.0037 mg/mL (≈ 10.3 µM); that for `CN=C1S/C(=C\c2ccc(Cl)cc2)C(=O)N1C` was 0.0012 mg/mL (≈ 4.5 µM).
The value for `Cc1cccc(NC(=S)N2CCN(S(C)(=O)=O)CC2)c1` was over 0.047 mg/mL.
The value for `Cl.O=C(NCC(c1ccc(F)cc1)N1CCOCC1)c1ccc([N+](=O)[O-])o1` (configuration not stated) was over 0.06 mg/mL; that for `O=C1NCCCCC1NS(=O)(=O)c1cccc2ccccc12` (configuration not stated) was over 0.0478 mg/mL.

The term solubility (kinetic) denotes the concentration staying in solution when a stock, usually in DMSO, is diluted into the medium.
